Measured values from ChEMBL document CHEMBL1158039, “Chemical constituents from the peels of Citrus sudachi” (2006).

Experiments:
Assay type in all cases: functional
Helicobacter pylori [1] = test: Antimicrobial activity against Helicobacter pylori ATCC 43504 at 100 ug/disk after 4 days by disk diffusion method; settings: ATCC 43504, 96 h, read-out: IZ
Staphylococcus aureus [2] = test: Antimicrobial activity against methicillin-resistant Staphylococcus aureus 5 at 100 ug/disk after 24 hrs by disk diffusion method; settings: read-out: IZ
Staphylococcus aureus [3] = test: Antimicrobial activity against methicillin-resistant Staphylococcus aureus COL at 100 ug/disk after 24 hrs by disk diffusion method; settings: read-out: IZ
Helicobacter pylori [4] = test: Antimicrobial activity against Helicobacter pylori ATCC 43504 at 0.25 ug/disk after 4 days by disk diffusion method; settings: ATCC 43504, 96 h, read-out: IZ
Staphylococcus aureus [5] = test: Antimicrobial activity against methicillin-resistant Staphylococcus aureus COL at 20 ug/disk after 24 hrs by disk diffusion method; settings: read-out: IZ
Staphylococcus aureus [6] = test: Antimicrobial activity against methicillin-resistant Staphylococcus aureus 5 at 20 ug/disk after 24 hrs by disk diffusion method; settings: read-out: IZ

Molecule `COc1c(O)c(OC)c2oc(-c3ccc(O)cc3)cc(=O)c2c1O` has a zone of inhibition at 100 µg/disc (Helicobacter pylori [1]) of 10.5 mm, a zone of inhibition at 100 µg/disc (Staphylococcus aureus [2]) of 23.8 mm and a zone of inhibition at 100 µg/disc (Staphylococcus aureus [3]) of 12.5 mm.

Work on `CC1(C)S[C@@H]2[C@H](NC(=O)[C@H](N)c3ccc(O)cc3)C(=O)N2[C@H]1C(=O)O` [AMOXICILLIN] yielded a zone of inhibition at 0.25 µg/disc (Helicobacter pylori [4]) of 33 mm.

`CC(=O)OCC1=C(C(=O)O)N2C(=O)[C@@H](NC(=O)CSc3ccncc3)[C@H]2SC1` [CEPHAPIRIN] showed a zone of inhibition at 20 µg/disc (Staphylococcus aureus [5]) of 8.2 mm and a zone of inhibition at 20 µg/disc (Staphylococcus aureus [6]) of 9.4 mm.

`COc1cc(-c2cc(=O)c3c(O)c(OC)c(O)c(OC)c3o2)ccc1O` [SUDACHITIN] showed a zone of inhibition at 100 µg/disc (Helicobacter pylori [1]) of 14 mm, a zone of inhibition at 100 µg/disc (Staphylococcus aureus [2]) of 25.4 mm and a zone of inhibition at 100 µg/disc (Staphylococcus aureus [3]) of 12 mm.
